How the values were obtained:
Details in all cases: incubation time: 72 h
DU-4475 [1] = experiment: normalised response (% of control), CellTiter-Glo; higher = more viable cells (100 = DMSO, 0 = benzethonium chloride kill control)
Method: (§1)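 DSRT, 72 h incubation, CellTox Green / CellTiter-Glo readout. Signal is normalised to DMSO and benzethonium chloride controls. Value is the normalised response at dose 3.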

BT-549 [2] = experiment: as above
Method: as §1

HCC1599 [3] = experiment: as above
Method: as §1

CAL-148 [4] = experiment: as above
Method: as §1

HCC1143 [5] = experiment: as above
Method: as §1

MCF-10A [6] = experiment: as above
Method: as §1

MDA-MB-436 [7] = experiment: as above
Method: as §1

CAL-51 [8] = experiment: as above
Method: as §1

CAL-120 [9] = experiment: as above
Method: as §1

BT-474 [10] = experiment: as above
Method: as §1

HCC1937 [11] = experiment: as above
Method: as §1

MDA-MB-231 [12] = experiment: as above
Method: as §1

Hs578T [13] = experiment: as above
Method: as §1

MDA-MB-453 [14] = experiment: as above
Method: as §1

MDA-MB-468 [15] = experiment: as above
Method: as §1

CAL-85-1 [16] = experiment: as above
Method: as §1

MFM-223 [17] = experiment: as above
Method: as §1

SK-BR-3 = experiment: as above
Method: as §1

HDQ-P1 [18] = experiment: as above
Method: as §1

DU-4475 [19] = experiment: normalised response (% of control), CellTox Green; higher = less cell death (100 = DMSO, 0 = benzethonium chloride kill control)
How it was run: (§2)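 Each entry is the normalised signal at a single concentration within a series. The series comprised 5 concentrations in 10-fold steps over a compound-specific 10,000-fold range, placed in 384-well plates into which breast cancer cell lines were seeded as 20 µl suspension and incubated 72 h. CellTox Green (485/520 nm) fluorescence and then CellTiter-Glo luminescence were read, with signals normalised per plate to 0.1 % DMSO (100) and a positive kill control (0).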

BT-549 [20] = experiment: as above
How it was run: as §2

HCC1599 [21] = experiment: as above
How it was run: as §2

CAL-148 [22] = experiment: as above
How it was run: as §2

HCC1143 [23] = experiment: as above
How it was run: as §2

MDA-MB-436 [24] = experiment: as above
How it was run: as §2

CAL-51 [25] = experiment: as above
How it was run: as §2

CAL-120 [26] = experiment: as above
How it was run: as §2

BT-474 [27] = experiment: as above
How it was run: as §2

HCC1937 [28] = experiment: as above
How it was run: as §2

MDA-MB-231 [29] = experiment: as above
How it was run: as §2

Hs578T [30] = experiment: as above
How it was run: as §2

MDA-MB-453 [31] = experiment: as above
How it was run: as §2

CAL-85-1 [32] = experiment: as above
How it was run: as §2

MFM-223 [33] = experiment: as above
How it was run: as §2

HDQ-P1 [34] = experiment: as above
How it was run: as §2

MCF-10A [35] = experiment: as above
How it was run: as §2

MDA-MB-468 [36] = experiment: as above
How it was run: as §2

| SMILES | normalised response (DU-4475 [1]) | normalised response (BT-549 [2]) | normalised response (HCC1599 [3]) | normalised response (CAL-148 [4]) | normalised response (HCC1143 [5]) | normalised response (MCF-10A [6]) | normalised response (MDA-MB-436 [7]) | normalised response (CAL-51 [8]) | normalised response (CAL-120 [9]) | normalised response (BT-474 [10]) | normalised response (HCC1937 [11]) | normalised response (MDA-MB-231 [12]) | normalised response (Hs578T [13]) | normalised response (MDA-MB-453 [14]) | normalised response (MDA-MB-468 [15]) | normalised response (CAL-85-1 [16]) | normalised response (MFM-223 [17]) | normalised response (SK-BR-3) | normalised response (HDQ-P1 [18]) | normalised response (DU-4475 [19]) | normalised response (BT-549 [20]) | normalised response (HCC1599 [21]) | normalised response (CAL-148 [22]) | normalised response (HCC1143 [23]) | normalised response (MDA-MB-436 [24]) | normalised response (CAL-51 [25]) | normalised response (CAL-120 [26]) | normalised response (BT-474 [27]) | normalised response (HCC1937 [28]) | normalised response (MDA-MB-231 [29]) | normalised response (Hs578T [30]) | normalised response (MDA-MB-453 [31]) | normalised response (CAL-85-1 [32]) | normalised response (MFM-223 [33]) | normalised response (HDQ-P1 [34]) | normalised response (MCF-10A [35]) | normalised response (MDA-MB-468 [36]) |
| --- | --- | --- | --- | --- | --- | --- | --- | --- | --- | --- | --- | --- | --- | --- | --- | --- | --- | --- | --- | --- | --- | --- | --- | --- | --- | --- | --- | --- | --- | --- | --- | --- | --- | --- | --- | --- | --- |
| CC(=O)c1c(C)c2cnc(Nc3ccc(N4CCNCC4)cn3)nc2n(C2CCCC2)c1=O [Palbociclib] (100 nM) | 98% | 97.9% | 94.4% | 85.7% | 96.5% | 85.8% | 96.4% | 72.8% | 86.4% | 85.7% | 95.7% | 95.9% | 103% | 105% | 85% | 97.3% | 79.7% | 86.3% | 103% | 98.8% | 103% | 95.2% | 103% | 55.5% | 77% | 110% | 98.7% | 99.6% | 82% | 103% | 104% | 107% | 102% | 101% | 101% | – | – |
| COc1cc(F)c(F)c(Nc2ccc(I)cc2F)c1NS(=O)(=O)C1(C[C@H](O)CO)CC1 [Refametinib] (100 nM) | 35.1% | 105% | 99.6% | 87.2% | 89.1% | 37.9% | 91.6% | 88.3% | 87.7% | 81% | 88% | 83.6% | 87.4% | 97.6% | 82.2% | 89.7% | 88.9% | 90.6% | 68.6% | 84% | 102% | 93.7% | 58.6% | 95.8% | – | 79.7% | 92.4% | 97.4% | 92.5% | – | 103% | 101% | 86.7% | 97.7% | 81.3% | 93.4% | – |
| O=NN(CCCl)C(=O)NCCCl [Carmustine] (100 nM) | 101% | 111% | 88% | 92.3% | 100% | 92.5% | 101% | 85% | 95.5% | 97.7% | 95.8% | 97.3% | 105% | 101% | 101% | 101% | 98.3% | 99.7% | 100% | 95.1% | 90.8% | 97.9% | 100% | 101% | 61.7% | 99.1% | 95.2% | 99.1% | 103% | 100% | 100% | 91.5% | 101% | 101% | 106% | 93.4% | 52.9% |
| CC(C)(C)c1cnc(CSc2cnc(NC(=O)C3CCNCC3)s2)o1 [SNS-032] (100 nM) | 86.9% | 20.3% | 90.2% | 42.8% | 36.6% | 79.4% | 27.9% | 31.9% | 70.9% | 68.2% | 60.8% | 29.7% | 55.6% | 46.2% | 12.6% | 28.2% | 76.9% | 33.1% | 44.2% | 95.2% | 88.6% | 88.5% | -22.6% | 85% | 59.7% | 39.7% | 90.5% | 86.4% | 53.3% | 4.71% | 60.3% | 94.9% | 35.7% | 91.5% | 57.6% | 84.7% | 94.5% |
| CC1(C)CCC(CN2CCN(c3ccc(C(=O)NS(=O)(=O)c4ccc(NCC5CCOCC5)c([N+](=O)[O-])c4)c(Oc4cnc5[nH]ccc5c4)c3)CC2)=C(c2ccc(Cl)cc2)C1 [ABT-199] (100 nM) | 102% | 100% | 94.2% | 98.9% | 102% | 98.2% | 96.7% | 92.4% | 101% | 96.7% | 98.2% | 99.3% | 107% | 90.7% | 93.6% | 101% | 99.2% | 101% | 104% | 99.3% | – | 99.2% | 84.2% | 91.6% | 83% | 101% | 101% | 101% | 89.3% | 105% | 104% | 101% | 94.6% | 79.9% | 93.6% | 81.7% | – |
